# Measured values reported in patent US8846704B2, “Thiopyrimidine-based compounds and uses thereof” (YM Biosciences Austraila Pty Ltd, priority 2007, dated 2014).
# Molecular target: T1, BaF3 TELJAK3 cells (Homo sapiens, UniProt P52333)
# T1 construct: fused on or other part: TEL (ETV6) N-terminal part, coding nucleotides 1-487, serves as the oligomerising partner; It is fused through a Sal I site to the JAK3 kinase domain and expressed from pTRE2 in BaF3 cells bearing pTET-off; P41212 (Transcription factor ETV6)
# T1 sequence (P52333 1-1124): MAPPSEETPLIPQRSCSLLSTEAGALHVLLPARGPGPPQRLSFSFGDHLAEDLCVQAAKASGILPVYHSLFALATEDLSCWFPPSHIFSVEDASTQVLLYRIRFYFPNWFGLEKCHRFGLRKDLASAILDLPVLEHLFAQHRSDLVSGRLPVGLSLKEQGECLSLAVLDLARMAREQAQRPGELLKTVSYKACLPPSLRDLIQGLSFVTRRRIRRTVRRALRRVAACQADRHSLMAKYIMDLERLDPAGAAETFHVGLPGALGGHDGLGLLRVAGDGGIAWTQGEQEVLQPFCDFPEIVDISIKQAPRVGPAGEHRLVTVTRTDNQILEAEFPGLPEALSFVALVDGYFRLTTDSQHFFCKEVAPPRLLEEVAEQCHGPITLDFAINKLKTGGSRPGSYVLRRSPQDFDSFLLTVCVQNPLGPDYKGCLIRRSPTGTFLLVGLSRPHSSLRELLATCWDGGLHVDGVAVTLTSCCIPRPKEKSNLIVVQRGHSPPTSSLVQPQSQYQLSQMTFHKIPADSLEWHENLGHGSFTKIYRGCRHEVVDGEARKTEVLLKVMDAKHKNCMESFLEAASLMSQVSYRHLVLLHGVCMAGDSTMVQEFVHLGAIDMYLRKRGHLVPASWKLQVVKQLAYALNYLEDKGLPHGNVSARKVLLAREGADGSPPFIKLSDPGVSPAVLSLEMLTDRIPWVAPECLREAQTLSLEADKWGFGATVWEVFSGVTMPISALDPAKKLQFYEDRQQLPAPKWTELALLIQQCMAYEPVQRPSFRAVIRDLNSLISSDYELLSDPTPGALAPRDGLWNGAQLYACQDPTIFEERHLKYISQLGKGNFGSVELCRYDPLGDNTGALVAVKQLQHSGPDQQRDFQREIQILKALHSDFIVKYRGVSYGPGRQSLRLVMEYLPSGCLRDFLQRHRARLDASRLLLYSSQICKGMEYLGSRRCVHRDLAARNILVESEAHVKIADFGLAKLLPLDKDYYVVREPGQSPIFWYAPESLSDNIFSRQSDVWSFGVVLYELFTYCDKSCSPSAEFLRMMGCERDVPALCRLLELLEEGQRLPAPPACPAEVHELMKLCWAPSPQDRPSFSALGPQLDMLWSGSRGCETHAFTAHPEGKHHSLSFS
# Assay: Cellular screening, BaF3 TEL:JAK3 cells, Alamar Blue
# Type: cell-based
# Conditions: 40 hr, read-out: BafT_J3 IC50_nM
# Method in brief: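 BaF3 cells carrying pTET-off and a TEL–JAK3 kinase-domain fusion, selected for growth-factor independence, were grown in DMEM with 10% Tet-approved FBS without WEHI 3B medium. Cells were exposed to compounds for 40 h at 37 °C, 5% CO2. Viability was read with Alamar Blue (4–6 h) at 544 nm.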
row,SMILES,GI50
1,"C=CC(=O)Nc1cccc(Nc2nccc(Sc3cccc(OC)c3)n2)c1 [Compound 31, N-(3-(4-(3-methoxyphenylthio)pyrimidin-2-ylao)phenyl)acrylamide]",< 1 µM
2,"COc1cc(Nc2nccc(Sc3ccc(NCC#N)cc3)n2)cc(OC)c1OC [Compound 52, 2-(4-(2-(3,4,5-trimethoxyphenylao)pyrimidin-4-ylthio)phenylao)acetonitrile]",< 5 µM
3,"C=CC(=O)Nc1ccc(Sc2ccnc(Nc3ccc(OC)cc3)n2)cc1 [Compound 74, N-(4-(2-(4-methoxyphenylao)pyrimidin-4-ylthio)phenyl)acrylamide]",< 1 µM
4,"CC(=O)Nc1ccc(Sc2ccnc(Nc3ccc(N4CCC(N5CCCC5)CC4)cc3)n2)cc1 [Compound 86, N-(4-(2-(4-(4-(pyrrolidin-1-yl)piperidin-1-yl)phenylao)pyrimidin-4-ylthio)phenyl)acetamide]",< 5 µM
5,"C=CC(=O)Nc1ccc(Sc2ccnc(Nc3ccc(N4CCC(N5CCCC5)CC4)cc3)n2)cc1 [Compound 87, N-(4-(2-(4-(4-(pyrrolidin-1-yl)piperidin-1-yl)phenylao)pyrimidin-4-ylthio)phenyl)acrylamide]",< 1 µM
6,"N#CCC(=O)Nc1ccc(Sc2ccnc(Nc3ccc(N4CCC(N5CCCC5)CC4)cc3)n2)cc1 [Compound 88, 2-cyano-N-(4-(2-(4-(4-(pyrrolidin-1-yl)piperidin-1-yl)phenylao)pyrimidin-4-ylthio)phenyl)acetamide]",< 5 µM
7,"C=CC(=O)N(C)c1ccc(Sc2ccnc(Nc3ccc(N4CCOCC4)cc3)n2)cc1 [Compound 91, N-methyl-N-(4-(2-(4-morpholinophenylao)pyrimidin-4-ylthio)phenyl)acrylamide]",< 1 µM
8,C=CC(=O)Nc1ccc(Sc2ccnc(Nc3ccc(OC)c(O)c3)n2)cc1 [Compound 97],< 1 µM
9,"C=CC(=O)Nc1ccc(Sc2ccnc(Nc3ccc(N4CCS(=O)(=O)CC4)cc3)n2)cc1 [Compound 99, N-{4-[(2-{[4-(1,1-dioxo-1λ^6,4-thiomorpholin-4-yl)phenyl]ao}pyrimidin-4-yl)sulfanyl]phenyl}prop-2-enamide]",< 1 µM
10,"COc1ccc(Nc2nccc(Sc3ccc(NC(=O)CC#N)cc3)n2)cc1OC [Compound 101, 2-cyano-N-(4-(2-(3,4-dimethoxyphenylao)pyrimidin-4-ylthio)phenyl)acetamide]",< 1 µM
11,"CC#CC(=O)Nc1ccc(Sc2ccnc(Nc3ccc(N4CCOCC4)cc3)n2)cc1 [Compound 104, N-(4-(2-(4-morpholinophenylao)pyrimidin-4-ylthio)phenyl)but-2-ynamide]",< 5 µM
12,"C=CC(=O)Nc1ccc(Sc2ccnc(Nc3cccc(OC)c3)n2)cc1 [Compound 105, N-(4-(2-(3-methoxyphenylao)pyrimidin-4-ylthio)phenyl)acrylamide]",< 1 µM
13,"COc1cc(Sc2ccnc(Nc3ccc(N4CCOCC4)cc3)n2)ccc1N [Compound 117, 4-(4-ao-3-methoxyphenylthio)-N-(4-morpholinophenyl)pyrimidin-2-ae]",> 20 µM
14,"C=CC(=O)Nc1ccc(Sc2ccnc(Nc3cccc(C#N)c3)n2)cc1 [Compound 118, N-(4-(2-(3-cyanophenylao)pyrimidin-4-ylthio)phenyl)acrylamide]",< 5 µM
15,"C=CC(=O)Nc1cccc(Sc2ccnc(Nc3ccc(OC)cc3)n2)c1 [Compound 120, N-(3-(2-(4-methoxyphenylao)pyrimidin-4-ylthio)phenyl)acrylamide]",< 1 µM
16,"C=CC(=O)Nc1ccc(Sc2nc(Nc3ccc(N4CCOCC4)cc3)ncc2C)cc1 [Compound 124, N-(4-(5-methyl-2-(4-morpholinophenylao)pyrimidin-4-ylthio)phenyl)acrylamide]",< 1 µM
17,"CC#CC(=O)Nc1ccc(Sc2nc(Nc3ccc(N4CCOCC4)cc3)ncc2C)cc1 [Compound 125, N-(4-(5-methyl-2-(4-morpholinophenylao)pyrimidin-4-ylthio)phenyl)but-2-ynamide]",< 5 µM

row,SMILES,GI50
1,"Cc1cnc(Nc2ccc(N3CCOCC3)cc2)nc1Sc1ccc(N)cc1 [Compound 126, 4-(4-aophenylthio)-5-methyl-N-(4-morpholinophenyl)pyrimidin-2-ae]",< 5 µM
2,"c1cn(Cc2ccc(Sc3ccnc(Nc4ccc(N5CCOCC5)cc4)n3)cc2)cn1 [Compound 127, 4-(4-((1H-imidazol-1-yl)methyl)phenylthio)-N-(4-morpholinophenyl)pyrimidin-2-ae]",< 20 µM
3,"C=CC(=O)Nc1ccc(Sc2ccnc(Nc3ccc(C#N)cc3)n2)cc1 [Compound 131, N-(4-(2-(4-cyanophenylao)pyrimidin-4-ylthio)phenyl)acrylamide]",< 5 µM
4,"CC(=O)Nc1ccc(Sc2nc(Nc3ccc(N4CCOCC4)cc3)ncc2C)cc1 [Compound 135, N-(4-(5-methyl-2-(4-morpholinophenylao)pyrimidin-4-ylthio)phenyl)acetamide]",> 20 µM
5,"Cc1cnc(Nc2ccc(N3CCOCC3)cc2)nc1Sc1ccc(C#N)cc1 [Compound 136, 4-(5-methyl-2-(4-morpholinophenylao)pyrimidin-4-ylthio)benzonitrile]",> 20 µM
6,"CCOC(=O)c1nccn1Cc1ccc(Sc2ccnc(Nc3ccc(N4CCOCC4)cc3)n2)cc1 [Compound 148, ethyl 1-(4-(2-(4-morpholinophenylao)pyrimidin-4-ylthio)benzyl)-1H-imidazole-2-carboxylate]",< 20 µM
7,"NC(=O)c1nccn1Cc1ccc(Sc2ccnc(Nc3ccc(N4CCOCC4)cc3)n2)cc1 [Compound 149, 1-(4-(2-(4-morpholinophenylao)pyrimidin-4-ylthio)benzyl)-1H-imidazole-2-carboxamide]",< 5 µM
8,"N#Cc1nccc(Sc2ccc(Sc3ccnc(Nc4ccc(N5CCOCC5)cc4)n3)cc2)n1 [Compound 154, 4-(4-(2-(4-morpholinophenylao)pyrimidin-4-ylthio)phenylthio)pyrimidine-2-carbonitrile]",< 5 µM
9,"C=CC(=O)Nc1ccc(Sc2ccnc(Nc3ccc(N4CCOCC4)cc3)n2)c(Cl)c1C [Compound 161, N-(3-chloro-2-methyl-4-(2-(4-morpholinophenylao)pyrimidin-4-ylthio)phenyl)acrylamide]",< 1 µM
10,"C=CC(=O)Nc1cc(C)c(Sc2nc(Nc3ccc(N4CCOCC4)cc3)ncc2C)c(C)c1 [Compound 164, N-(3,5-dimethyl-4-(5-methyl-2-(4-morpholinophenylao)pyrimidin-4-ylthio)phenyl)acrylamide]",< 1 µM
11,"Cc1cnc(Nc2ccc(N3CCOCC3)cc2)nc1Sc1ccc2c(c1)CCCN2 [Compound 166, 5-methyl-N-(4-morpholinophenyl)-4-(1,2,3,4-tetrahydroquinolin-6-ylthio)pyrimidin-2-ae]",< 20 µM
12,"C=CC(=O)Nc1ccc(Sc2nc(Nc3ccc(N4CCOCC4)cc3)ncc2C)c(Cl)c1C [Compound 171, N-(3-chloro-2-methyl-4-(5-methyl-2-(4-morpholinophenylao)pyrimidin-4-ylthio)phenyl)acrylamide]",< 5 µM
13,"CSc1nc(Nc2ccc(N3CCOCC3)cc2)ncc1C [Compound 176, 5-methyl-4-(methylthio)-N-(4-morpholinophenyl)pyrimidin-2-ae]",< 5 µM
14,"Cc1cnc(Nc2ccc(N3CCOCC3)cc2)nc1Sc1ccc(NC(=O)COCC(=O)O)cc1 [Compound 188, 2-(2-(4-(5-methyl-2-(4-morpholinophenylao)pyrimidin-4-ylthio)phenylao)-2-oxoethoxy)acetic acid]",> 20 µM
15,"COC(=O)COCC(=O)Nc1ccc(Sc2nc(Nc3ccc(N4CCOCC4)cc3)ncc2C)cc1 [Compound 189, methyl 2-(2-(4-(5-methyl-2-(4-morpholinophenylao)pyrimidin-4-ylthio)phenylao)-2-oxoethoxy)acetate]",< 20 µM
16,"C=CC(=O)Nc1ccc(Sc2ccnc(Nc3ccccc3O)n2)cc1 [Compound 279, N-(4-(2-(2-hydroxyphenylao)pyrimidin-4-ylthio)phenyl)acrylamide]",< 20 µM
17,"C=CC(=O)Nc1ccc(Sc2nc(Nc3cccc(O)c3)ncc2C)cc1 [Compound 281, N-(4-(2-(3-hydroxyphenylao)-5-methylpyrimidin-4-ylthio)phenyl)acrylamide]",< 1 µM
